This is an account of results in PubChem BioAssay (NCI).

SMILES strings stand for the structures.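 Five compound concentrations were applied to cells in 96-well plates for 48 hours; endpoints were derived by simple linear interpolation of the resulting dose-response curve. Abbreviation: GI50, concentration required for 50% inhibition of growth. TGI: concentration producing complete growth inhibition.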

Common to all, as to test: NCI tumour cell line growth inhibition, 48 h
For test [1], the system named is CAKI-1 renal.
For test [2], the system named is HOP-62 NSCLC.
For test [3], the system named is NCI-H23 lung.
Test [4] concerns OVCAR-5 ovarian.
In test [5] the test system is SF-295 CNS.
For test [6], the system named is SK-MEL-28 melanoma.
Test [7] has as its system SK-OV-3 ovarian.
Test [8] deals with SN12C renal.
In test [9] the test system is SNB-19 CNS.
The test system of test [10] is SR leukemia.

On to `CCC1(c2ccncc2)CCC(=O)NC1=O` (centres undefined), for which the TGI in test [1], in test [2], in test [3], in [4], in test [5] and in test [6] was more than 100 µM in each case. Further, the TGI in test [7], in test [8], in [9] and in test [10] was more than 100 µM throughout.
With `COc1cc2c(c(OC)c1OC)C(=O)c1c-2n(CCCN)c(=O)c2cc([N+](=O)[O-])ccc12`, the GI50 in test [1] is 0.535 µM; in [2] it was 0.958 µM; in test [3] it was 1.52 µM; in test [4] it was 1.61 µM; in [5], 1.64 µM; in test [6], 1.76 µM. Also, the GI50 in test [7] is 1.95 µM; in test [8] it was 5.11 µM; in [9], 1.5 µM; in test [10] it was 2.41 µM. The TGI was 2.24 µM in test [1]; 2.6 µM in test [2]; 3.81 µM in [3]; 3.04 µM in test [4]; 3.39 µM in test [5]; 3.97 µM in [6]. For the same compound, the TGI in [7] was 4 µM; in [8] it was 13.6 µM; in [9], 5.15 µM; in test [10], 5.44 µM.
Regarding `C#Cc1cccc(N2C(=O)CC(=P(c3ccccc3)(c3ccccc3)c3ccccc3)C2=O)c1`, the TGI in test [1], in test [2], in [3], in [4], in [5] and in [6] was more than 100 µM in each case. Besides, the TGI in test [7], in [8], in test [9] and in test [10] was more than 100 µM throughout.
Regarding `C=C(C)[C@@H]1CC[C@]2(c3ncc(C)o3)CC[C@]3(C)[C@H](CC[C@@H]4[C@@](C)(CCC#N)[C@H](C(=C)C)CC[C@]43C)[C@@H]12`, the GI50 in test [1] was 2.8 µM; in [2] it was 6.99 µM; in test [3], 6.54 µM; in test [4], 8.73 µM; in test [5] it was 7.22 µM; in test [6], 5.42 µM. For the same compound, the GI50 in test [7] was 11.4 µM; in test [8] it was 3.16 µM; in test [9], 3.66 µM; in test [10], 2.75 µM. Besides, the TGI worked out at 16.1 µM in [1]; 21.6 µM in [2]; 21.4 µM in [3]; 21.1 µM in test [4]; 21.2 µM in test [5]; 18.4 µM in [6]. Moreover, the TGI in test [7] is 25.2 µM; in test [8], 12.1 µM; in test [9], 14.5 µM; in [10], more than 100 µM.
On to `COc1ccc(-n2nc(C)c3c(Nc4ccc(NC(=O)Nc5cc(C(F)(F)F)ccc5F)cc4)ncnc32)cc1`, for which the GI50 in test [1] is 2.01 µM; in [2] it was 2.97 µM; in test [3], 2.22 µM; in [4], 2.87 µM; in test [5] it was 2.06 µM; in test [6], 2.51 µM. For the same compound, the GI50 in test [7] was 3.48 µM; in test [8] it was 2.96 µM; in test [9] it was 3.66 µM; in [10] it was 2.87 µM. Besides, the TGI in test [1] is 6.87 µM; in test [2] it was 11.4 µM; in test [3], 6.71 µM; in [4], 10.6 µM; in test [5] it was 4.43 µM; in test [6] it was 6.29 µM. Moreover, the TGI in test [7] is 82.3 µM; in test [8], 42.9 µM; in test [9], more than 100 µM; in [10], more than 100 µM.
On to `COc1ccc(S(=O)(=O)N2CCCCC2)cc1NC(=O)c1[nH]c(C)c2c1CCCCC2=O`, for which the GI50 in test [1] is 0.419 µM; in [2], 0.904 µM; in [3] it was 3.11 µM; in test [4] it was 2.53 µM; in test [5], 2.52 µM; in test [6] it was 2.72 µM. Also, the GI50 in [7] is 2.14 µM; in [8], 3.16 µM; in test [9], 3.8 µM; in [10], 0.762 µM. The TGI is 56.7 µM in test [1]; more than 100 µM in test [2]; more than 100 µM in test [3]; more than 100 µM in test [4]; more than 100 µM in test [5]; more than 100 µM in test [6]. For the same compound, the TGI in test [7] is 44.4 µM; in test [8] it was more than 100 µM; in test [9] it was more than 100 µM; in [10], more than 100 µM.
With `CN(C)c1ccc2c(SCC(=O)OCC(=O)[C@@]3(O)CC[C@H]4[C@@H]5CCC6=CC(=O)C=C[C@]6(C)[C@H]5C(=O)C[C@@]43C)c3ccc(N(C)C)cc3nc2c1`, the TGI was 60.8 µM in test [1]; more than 100 µM in test [2]; 64.9 µM in test [3]; more than 100 µM in test [4]; more than 100 µM in test [5]; more than 76.1 µM in [6]. Further, the TGI in test [7] is more than 100 µM; in [8], more than 59.3 µM; in [9], more than 94.5 µM; in test [10] it was 4 µM.
On to `COc1cc(C(C)c2cc3c(cc2OCCOCCOc2cc4c(cc2C(C)c2cc(OC)c(OC)c(OC)c2)OCO4)OCO3)cc(OC)c1OC` (centres undefined), for which the GI50 in test [1] was more than 100 µM; in test [2], more than 100 µM; in [3], more than 100 µM; in test [4] it was more than 100 µM; in test [5], more than 10 µM; in [6], more than 100 µM. Moreover, the GI50 in test [7], in test [8] and in test [9] was more than 100 µM in each case. The TGI in test [1], in [2], in test [3], in [4], in test [5] and in [6] was more than 100 µM throughout. Also, the TGI in test [7] is more than 100 µM; in test [8], more than 100 µM; in [9], more than 100 µM; in [10], more than 10 µM.
